Reference: patent US20100249302A1, “LIQUID COMPOSITION CONTAINING PERFLUORO-CHLOROETHER SOLVENT” (FUJIFILM CORPORATION, priority 2009, published 2010)

Experiments:
[1] = Solubility of coating-composition components in FC-72 (comparative coating examples); conditions: label = solute, solvent = FC-72; coating composition preparation
[2] = Solubility of FC-72 (perfluorohexane) in the fluorine-containing solvents; assay type: physicochemical; conditions: for Solubility (% by weight) FC-72 (Fluorine Content: 79% by weight): Table 1, solute FC-72 dissolved in the solvent; for ability of the solvent to dissolve FC-72: label = solvent, solute = FC-72
[3] = Measurement of solubility of compound (17) (fluorine-free organic compound) in fluorine-containing solvents; conditions: Table 1; solute compound (17) dissolved in the solvent
Experimental: The resulting solution is diluted with deutrochloroform, followed by measuring ^1H-NMR.

SMILES | solubility in FC-72 [1] | Solubility (% by weight) FC-72 (Fluorine Content: 79% by weight) [2] | ability of the solvent to dissolve FC-72 [2] | Solubility (% by weight) Compound (17) (Fluorine Content: 0% by weight) [3] | Solubility (% by weight) FC-72 [2]
OCC(F)(F)C(F)(F)C(F)(F)C(F)(F)C(F)(F)C(F)(F)C(F)(F)C(F)(F)CO [1H,1H,10H,10H-hexadecafluoro-1,10-decanediol] | not completely soluble |  |  |  | 
CCO[Si](CCCN=C=O)(OCC)OCC [3-(triethoxysilyl)propyl isocyanate] | not completely soluble |  |  |  | 
FC(F)(Cl)C(F)(F)OC(F)(Cl)C(Cl)(Cl)Cl (stereo not shown) [Compound (2)] |  | soluble in any | can dissolve FC-72 in any proportion | soluble in any | 
FC(F)(Cl)C(F)(F)OC(F)(Cl)C(F)(Cl)Cl (stereo not shown) [Compound (2′)] |  |  | can dissolve FC-72 in any proportion |  | soluble in any
FC(F)(Cl)C(F)(OC(F)(Cl)C(Cl)(Cl)Cl)C(F)(F)Cl (stereo not shown) [Compound (3)] |  | soluble in any | can dissolve FC-72 in any proportion | soluble in any | 
FC(Cl)(Cl)C(F)(F)OC(F)(Cl)C(F)(Cl)Cl (stereo not shown) [Compound (3′)] |  |  | can dissolve FC-72 in any proportion |  | soluble in any
FC(Cl)(Cl)C(F)(F)OC(F)(Cl)C(Cl)(Cl)Cl (stereo not shown) [Compound (4)] |  | soluble in any | can dissolve FC-72 in any proportion | soluble in any | 
FC(Cl)(Cl)C(F)(Cl)OC(F)(F)C(Cl)(Cl)Cl (stereo not shown) [Compound (4′)] |  |  | can dissolve FC-72 in any proportion |  | soluble in any
FC(F)(OC(F)(Cl)C(Cl)(Cl)Cl)C(Cl)(Cl)Cl (stereo not shown) [Compound (5)] |  | soluble in any | can dissolve FC-72 in any proportion | soluble in any | 
FC(F)(Cl)C(F)(OC(F)(Cl)C(F)(Cl)Cl)C(F)(F)Cl (stereo not shown) [Compound (5′)] |  |  | can dissolve FC-72 in any proportion |  | soluble in any
